Results published in patent US20040110676A1, “Methods for modulating cell survival” (priority 2000, published 2004).

Legend:
hippocampal neurons = test: Kainic acid-induced seizure neurodegeneration in YAC transgenic mice; type: in vivo
Protocol: Yeast artificial chromosome (YAC) transgenic mice were generated that over-express wild-type human htt at 2-3 times the levels of endogenous htt in wild-type mice (FVB/NJ) (Hodgson et al.(1996) Hum. Mol. Genet. 5, 1875-1885). Fifteen of these transgenic and 23 control FVB/NJ mice 4-8 months of age each received a single intraperitoneal injection of 25 mg/kg kainic acid (KA) or an equal volume of vehicle (PBS). Intraperitoneal injections of kainic acid injections cause prolonged seizures in mice, and each mouse was observed continuously for two hours following injection. The occurrence, severity, and duration of seizures was recorded.
(§1) One week following KA injection, brains were removed from one group of the mice and immediately frozen in isopentene on dry ice. Serial 30 μm coronal cryostat sections were cut through the entire hippocampus. After every fifth section, two sections were removed for quantitative analysis and fixed in 3% paraformaldehyde for 30 minutes in preparation for histochemical staining. Degenerating neurons were identified in hippocampal sections by Fluoro-Jade™ histochemistry (Histo-Chem Inc.), silver staining (FD Neurotechnologies) and by TUNEL™ (Boehringer Mannheim). Fluoro-Jade™ is a fluorescent stain that labels degenerating neurons in fixed brain sections. The total number of degenerated hippocampal neurons labeled with Fluoro-Jade™ was recorded from the CA1, CA3, and total hippocampus regions of each section selected for quantitative analysis. Slide-mounted sections were viewed with a Zeiss (Axiovert) fluorescent microscope, digital photomicrographs were captured with a cooled CCD camera (Princeton), and degenerating hippocampal neurons manually counted in a blinded fashion. To assess the role of caspase activation in this process, the hippocampus and cerebellum were removed from a second group of animals 8 hours following KA-induced seizures. Caspase activity was measured in homogenized hippocampal and cerebellar samples using the fluorogenic substrate acetylated DEVD aminofluorocoumarin. DEVD-ase activity was standardized to protein content as determined by standard Lowry analysis.

[1] = test system: DEVD-ase activity (caspase-2, -3, -7); test: DEVD-ase (caspase) activity after kainic acid-induced seizures; type: in vivo, mice; conditions: 8 hours after KA-induced seizures
Protocol: as §1, with “To assess the role of caspase activation in this process, the hippocampus and cerebellum were removed from a second group of animals 8 hours following KA-induced seizures.” left out

NIH3T3 cells [2] = test: Cellular proliferation after transient transfection, colorometric assay of cell number; type: cell-based
Protocol: The ability of NIH3T3 cells to overcome contact inhibition when transfected with different gene constructs has been used for many years to assess oncogenic potential of certain genes and to identify potential oncogenes. Cellular proliferation was assessed following transient transfections of NIH3T3 cells using a standardised colorometric assay of cell number. The effect of htt on cellular growth was examined and compared to the effect of a known oncogene, ras (FIG. 17). NIH3T3 cells transfected with htt constructs show a significant increase in cellular proliferation (5-6 fold increase in proliferation compared to control vector) that is similar to the effect of ras.

NIH3T3 cells [3] = test: Soft agar colony formation and transformation of retrovirally transfected cells; type: cell-based
Protocol: Retroviral introduction of the S421 mutants into NIH3T3 cells was used to examine the oncogenic (proliferative) effects of phosphorylation on serine 421. […] To test the oncogenic potential of htt and to examine the effect of phosphorylation of htt at S421 on cell proliferation, a soft agar assay was conducted in NIH3T3 cells (FIG. 21). […] Mutant htt (HD138) transfection leads to no (0%) soft agar colonies.

[4] = Body weight of transgenic mice over-expressing wild-type htt; type: in vivo; conditions: transgenic mice aged 5-8 months over-expressing wild-type htt
Source text: One of the roles of the pro-survival (e.g. anti-apoptotic) function of wild-type htt may be in control of tissue mass and cellular proliferation. Increased levels of wild-type htt expression can lead to increased body tissue mass and may predispose mice to the development of tumors. The effect of over-expression of human wild-type htt on the body weight of transgenic mice was compared to wild-type mice (FIG. 16). […] The average body weight was approximately 25% greater for the transgenic mice compared to wild-type. […] Over production of cells in the body can have a variety of unwanted outcomes including but not limited to obesity or cancer. This may be due to decreased naturally occurring apoptosis or increased cellular proliferation.

[5] = Retrospective analysis of tumor development in transgenic mouse colony; type: in vivo, mice
Protocol: A retrospective analysis was performed to examine the total numbers of mice (identified by the animal colony health staff) that developed tumors in the colony of transgenic mice. The records of all mice diagnosed with tumors over a 6 month period were examined, in a group of mice over-expressing wild-type human htt and their wild-type littermates. […] The average age of tumor development was younger in the transgenic group 13.8 months compared to 17.1 months for wild-type littermates. The majority of identified tumors in male mice were testicular tumors.

NIH/3T3 cells = test: Anoikis assay on poly-HEMA coated plates, annexin-V-FITC/PI; type: cell-based, murine; conditions: detached, 8 hours, p<0.05 vs parental cells
Source text: Using the murine transformed fibroblast cell line, NIH/3T3, the anoikis-resistance properties of wild type htt (15 glutamine repeat) and mutant htt (138 glutamine repeat) were investigated. NIH/3T3 cells require a matrix for attachment in order to experience optimum growing conditions. When detached from the supporting matrix, they experience a high rate of apoptosis. NIH/3T3 cells were transfected with a mammalian expression vector containing wild type htt (15 glutamine repeat) or mutant htt (138 glutamine repeat). Untransfected and transfected NIH/3T3 cells were grown on cell culture plates, whose plastic surface served as a substrate for matrix deposition and subsequent cellular attachment, or on poly-HEMA coated cell culture plates. The nonionic nature of poly-HEMA inhibits both matrix deposition and subsequent cell attachment. […] The cells were cultured in DMEM with 10% serum for 8 hours under attached conditions on plastic plates or under detached conditions on poly-HEMA-coated plastic plates. Cells were harvested, counted and viability was assessed via annexin-V-FITC and propidium iodide (PI) staining.

wild-type htt: wild-type human huntingtin protein, polyglutamine tract of less than 35 glutamines; over-expressed in YAC line 212 mice or transfected (15 glutamine repeat)
average number of degenerating neurons per animal (Fluoro-Jade) (hippocampal neurons; CA1 region, 25 mg/kg KA i.p., one week, control 2360): 3
average number of degenerating neurons per animal (Fluoro-Jade) (hippocampal neurons; CA3 region, 25 mg/kg KA i.p., one week, control 2003): 79
fold less degenerating hippocampal neurons than control animals (hippocampal neurons; after KA-induced seizures): approximately 50 fold
TUNEL labeled apoptotic hippocampal neurons (hippocampal neurons; after KA-induced seizures, transgenic mice): few apoptotic hippocampal neurons
argyrophyllic labelling of neuronal soma (silver staining) (hippocampal neurons; hippocampal sections after KA-induced seizures, transgenic vs wild-type mice): dramatically reduced
average number of degenerating hippocampal neurons per animal (Fluoro-Jade) (hippocampal neurons; total hippocampus, mice expressing 2-3 times endogenous htt levels, 25 mg/kg KA i.p., one week, control 4362): 81
cerebellar caspase activation (DEVD-ase activity) ([1]; cerebellum, wild-type mice 8.68 +/−1.67, no significant difference): 13.66 +/−2.32
hippocampal caspase activation (DEVD-ase activity) ([1]; hippocampus, wild-type mice 20.8 +/−1.77, P=0.02): 14.5 +/−1.49
increase in proliferation compared to control vector (NIH3T3 cells [2]): 5-6 fold
soft agar colonies (NIH3T3 cells [3]; retrovirally transfected NIH3T3 cells, control cells about 5%): about 15%
increase in number of colonies over control cells (NIH3T3 cells [3]; soft agar, NIH3T3 cells): 3 fold
morphologic transformation (NIH3T3 cells [3]; stable retroviral transfection of NIH3T3 cells): malignant, morphologic transformation
average body weight greater than wild-type mice [4]: approximately 25%
mice identified with tumors that were transgenic ([5]; 6 month period, 38/45): 84.5%
average age of tumor development ([5]; transgenic group, wild-type littermates 17.1 months): 13.8 months
protection from cell death induced by anoikis (NIH/3T3 cells): Protection from cell death induced by anoikis
